# Experimental data published in article PMC5296733, “Functional Coupling of Human Microphysiology Systems: Intestine, Liver, Kidney Proximal Tubule, Blood-Brain Barrier and Skeletal Muscle” (Scientific Reports, 2017).
# What was measured:
# [1] = Table 2, clinical; cited from earlier work
# [2] = tested on: static SQL-SAL liver model; test: Static 4-cell SQL-SAL liver in 96-well microplates (vitamin D3); type: in vitro ADME, human
# Description: Media without dexamethasone was used to avoid downstream toxicity to the human neurons in the NVU. […]
# The intestinal/liver-conditioned media efflux was collected and samples were tested by MS or transported on dry ice for testing in the kidney module, or the BBB/NVU module.
# Dexamethasone, normally used to maintain hepatocyte differentiation, was removed from the liver media for functional coupling to avoid downstream toxicity to the human neurons in the NVU. […] Briefly, cryopreserved human hepatocytes were seeded into collagen type 1 coated 96-well plates at 26,000 hepatocytes/well and allowed to attach overnight in hepatocyte plating media (HPM). The HPM was decanted and 1.25x10^5 Ea.Hy.926 endothelial cells and 8 X10^4 differentiated U937 immune cells in MEM media supplemented with 10% FBS and L-Glutamine were added. After 2 h the media was decanted and 40 µL of a slurry of 1.5 mg/mL gelling collagen type 1 in Williams E media with 4 X 10^4 LX-2 stellate cells was added.
# [3] = tested on: differentiated human jejunal enteroids; test: Intestine module: jejunal enteroid Transwell transport and metabolism
# Description: (§1) Mass spectrometry was used to measure the concentration of compound and metabolites in the media following exposure in each MPS organ module.
# (§2) Human jejunal enteroid cultures were isolated from two separate donors as described[59] and maintained in culture as spherical enteroids in Matrigel (Becton Dickinson, Franklin Lakes, NJ) until dissociated and plated as monolayer cultures on collagen IV coated polyethylene terephthalate (PET) Transwell® membrane inserts (Corning, Inc., Corning, NY) (Fig. 1A)[55][59][60][61]. The apical chamber received 100 μl of a 5 × 10^6/mL of the suspended cells in proliferation media. The basolateral chamber received 600 μl of proliferation media. […] Jejunal barrier monolayer with intact tight junctions were established by TEER testing and the restricted diffusion of 4 kD FITC-dextran polymers over the 24 h period (Supplemental Information Supplemental Table S8).
# (§3) TMA was prepared at a concentration 3 mM by dissolving the neat compound directly into intestinal apical media. […] The dried residue was solubilized in apical media and mixed by sonication in a water bath for 30 s.
# (§4) All treatments were conducted in duplicate modules in each laboratory. […] The apical and basolateral media were collected in glass vials and frozen at −80 °C for MS analysis and transported to UPitt for testing in the SQL-SAL module.
# [4] = tested on: proximal tubule kidney (PTK) module; test: Proximal tubule kidney (PTK) module, vitamin D3 metabolites
# Description: Briefly, a single 100 μm diameter lumen was pre-cast in gelling collagen inside the microfluidic device and then seeded with passage 5 kidney PTEC to 100% confluence according to established methods[52]. The kidney proximal tubule modules were then perfused (30 μL/h) for 8 days with 100% kidney proximal tubule media prior to perfusion with mixed media solutions.
# All media samples were stored in amber glass vials at −80 °C until LC-MS/MS analysis.
# [5] = tested on: differentiated human jejunal enteroids; settings: human, 24 h, 100 µM
# Description: as §1, §2, §3, §4
# [6] = tested on: blood-brain barrier/neurovascular unit (BBB/NVU); test: BBB/NVU module penetration; settings: BBB/NVU module, liver-conditioned media; TMAO 12 h, others 24 h
# [7] = tested on: blood-brain barrier/neurovascular unit (BBB/NVU); settings: human, 24 h
# Liver MPS Organ Module = test: Effect of vitamin D binding protein on recovery and metabolism in liver module; type: in vitro ADME, human; settings: 7 μM VitD3
# Description: Media without dexamethasone was used to avoid downstream toxicity to the human neurons in the NVU. […] Media samples were collected after 24 h and 48 h incubations.
# Samples from the treatment conditions were collected after 24-h and 48-h incubations and stored in amber glass vials at -80°C for LC-MS/MS analysis.
smiles,measurement,setting,value
"C=C1CC[C@H](O)C/C1=C/C=C1\CCC[C@]2(C)[C@@H]([C@H](C)CCCC(C)C)CC[C@@H]12 [Vitamin D3, vitamin D3, reference compound]","Penetration through blood-brain barrier, Clinical",[1],VD3 & 25(OH)VD3 Penetration
same,"Liver metabolism, MPS","[2]; Table 2, MPS model, vitamin D3","VD3 → 25(OH)VD3 & 24,25(OH)2VD3"
same,Vitamin D3 perfused into the liver that was unrecoverable,"[2]; initial four-organ functional study, no DBP",80%
same,Concentration in liver efflux media,"[2]; vitamin D3 experiment, 96-well 4-cell liver module, 72 h, media pooled",1100 (pooled)^3 ng/ml
same,Share of initial vitamin D3 concentration transported to basolateral media,"[3]; 100 μM vitamin D3 in micelles apical, 24 h",23%
same,Concentration in micelle preparation,[3]; synthetic micelles containing 100 μM vitamin D3,36000 ± 4200 ng/mL
same,Concentration in kidney efflux media,"[4]; 0-48 h, 50% liver-conditioned, N=2",1.5 ng/mL
same,Concentration in kidney efflux media,"[4]; 0-48 h, 80% liver-conditioned",4.3 ng/mL
same,Concentration in kidney efflux media,"[4]; 0-120 h, 50% liver-conditioned",1.0 ng/mL
same,Concentration in kidney efflux media,"[4]; 0-120 h, 80% liver-conditioned",1.4 ng/mL
same,Concentration in intestine apical media,[5],20000 ± 2200 ng/mL
same,Concentration in intestine basolateral media,[5],8300 ± 410 ng/mL
same,Penetration through blood-brain barrier (MPS),[6],0.4%
same,Concentration in brain neuronal efflux,[7],0.19 ± 0.23 ng/mL
same,Concentration in brain vascular efflux,[7],45 ± 6.2 ng/mL
same,VD3 Recovered in Efflux Media,"Liver MPS Organ Module; 0-24 h, Williams E Media + 1.25 mg/ml BSA (no DBP)",20%
same,VD3 Recovered in Efflux Media,"Liver MPS Organ Module; 0-24 h, Williams E Media + 1.25 mg/ml BSA (no DBP), listed as VD3",20% recovery
same,VD3 Recovered in Efflux Media,"Liver MPS Organ Module; 0-24 h, Williams E Media, 1.25 mg/ml BSA, 3 μM Vitamin D Binding Protein, listed as VD3",57% recovery
same,VD3 Recovered in Efflux Media,"Liver MPS Organ Module; 24-48 h, Williams E Media, 1.25 mg/ml BSA, 3 μM Vitamin D Binding Protein",~100%
same,VD3 Recovered in Efflux Media,"Liver MPS Organ Module; 24-48 h, Williams E Media, 1.25 mg/ml BSA, 3 μM Vitamin D Binding Protein, listed as VD3",100% recovery
